# Measured values taken from ChEMBL document CHEMBL3886909, “7-hydroxy-spiropipiperidine indolinyl antagonists of P2Y1 receptor” (2016).
# What was measured:
# [1] = biological target: T1, P2Y purinoceptor 1 (Homo sapiens, UniProt P47900); assay: Scintillation Proximity Assay (SPA): A SPA membrane binding assay was used to identify inhibitors of [33P] […] Binding reactions were performed in 384-well OptiPlates (PerkinElmer Life Sciences, Cat #6007299) in a volume of 50 uL containing 15 fmol of P2Y1 receptor (1.7 ug of total protein), 0.3 nM [33P] […] Reactions were allowed to proceed to completion at room temperature for 1 hour followed by centrifugation of the plate for 5 min. About 40 uL of the aqueous soluttion was aspirated. Plates were sealed and the [33P]
# T1 sequence (P47900 whole entry): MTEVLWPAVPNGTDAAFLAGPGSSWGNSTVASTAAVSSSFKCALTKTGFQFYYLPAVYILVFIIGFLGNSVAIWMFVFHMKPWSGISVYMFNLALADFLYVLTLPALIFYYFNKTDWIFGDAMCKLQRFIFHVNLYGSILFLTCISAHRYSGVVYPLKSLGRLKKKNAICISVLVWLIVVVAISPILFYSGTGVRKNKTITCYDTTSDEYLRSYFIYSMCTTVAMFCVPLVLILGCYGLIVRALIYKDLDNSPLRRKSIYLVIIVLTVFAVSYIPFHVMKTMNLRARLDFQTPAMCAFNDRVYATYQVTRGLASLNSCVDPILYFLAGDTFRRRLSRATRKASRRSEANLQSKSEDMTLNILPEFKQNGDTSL
# [2] = biological target: T1, P2Y purinoceptor 1; assay: Binding Assay: Binding reactions were performed in WGA FLASHPLATEs (PerkinElmer Life Sciences, Cat # SMP105A) in a volume of 200 uL containing 45 fmol of P2Y1 receptor (5 ug of total protein), 0.5 nM [33P] […] Reactions were allowed to proceed to completion at room temperature for 1 hour and then the aqueous solution aspirated.
structure (smiles),measurement,setting,value
CC(C)CN1CCC2(CC1)CN(c1ccccc1NC(=O)Nc1ccc(OC(F)(F)F)cc1)c1c(O)ccc(-c3nc4cc(Cl)ccc4s3)c12,Ki,[1],9.6 nM
CC(C)(C)CN1CCC2(CC1)CN(c1ccccc1NC(=O)Nc1ccc(OC(F)(F)F)cc1)c1c(O)ccc(-c3nc4cc(Cl)ccc4s3)c12,Ki,[1],137 nM
CC(C)(C)CN1CCC2(CC1)CN(c1ccccc1NC(=O)Nc1nc3ccc(Cl)nc3s1)c1c(O)ccc(-c3nc4cc(Cl)ccc4s3)c12,Ki,[1],53.7 nM
CC(C)(C)CN1CCC2(CC1)CN(c1ccccc1NC(=O)Nc1ccc(OC(F)(F)F)cc1)c1c(O)cc(F)cc12,Ki,[2],9.1 nM
CC(C)(C)CN1CCC2(CC1)CN(c1ccccc1NC(=O)Nc1ccc(OC(F)(F)F)cc1)c1c(O)ccc(-c3nc4ccc(Cl)cc4s3)c12,Ki,[1],73.4 nM
CC(C)(C)CN1CCC2(CC1)CN(c1ccccc1NC(=O)Nc1nc3ccc(Cl)nc3s1)c1c(O)ccc(-c3nc4cc(C(F)(F)F)ccc4s3)c12,Ki,[1],24.6 nM
CC(C)(C)CN1CCC2(CC1)CN(c1ccccc1NC(=O)Nc1nc3ccc(F)cc3s1)c1c(O)ccc(-c3nc4cc(Cl)ccc4s3)c12,Ki,[1],1.2 nM
CC(C)(C)CN1CCC2(CC1)CN(c1ccccc1NC(=O)Nc1csc(Cl)n1)c1c(O)ccc(-c3nc4cc(Cl)ccc4s3)c12,Ki,[1],9.1 nM
CC(C)N1CCC2(CC1)CN(c1ccccc1NC(=O)Nc1ccc(OC(F)(F)F)cc1)c1c(O)ccc(-c3nc4cc(Cl)ccc4s3)c12,Ki,[1],24 nM
CC(C)(C)CN1CCC2(CC1)CN(c1ccccc1NC(=O)Nc1csc(Cl)n1)c1c(O)cc(F)c(Cl)c12,Ki,[1],19 nM
CC(C)(C)CN1CCC2(CC1)CN(c1ccccc1NC(=O)Nc1nc3ccc(Cl)cc3s1)c1c(O)cc(F)c(Cl)c12,Ki,[1],23.1 nM
CC(C)(C)CN1CCC2(CC1)CN(c1ccccc1NC(=O)Nc1nc3ccc(F)cc3s1)c1c(O)ccc(-c3nc4ccc(Cl)cc4s3)c12,Ki,[1],104 nM
CC(C)(C)CN1CCC2(CC1)CN(c1ccccc1NC(=O)Nc1csc(Cl)n1)c1c(O)ccc(-c3nc4cccc(Cl)c4s3)c12,Ki,[1],18.4 nM
